From PMC6713104, “New peptide derived antimalaria and antimicrobial agents bearing sulphonamide moiety” (Journal of Enzyme Inhibition and Medicinal Chemistry, 2019)
Converted amounts (≈) assume the structure as drawn. Read-outs that look alike come from different tables or passages of the source.

Key:
B. subtilis = assay: Antimicrobial MIC, agar cup diffusion; format: cell-based; details: for MIC: Bacillus subtilis, B. subtilis, read-out: MIC (minimum inhibitory concentration)
E. coli = assay: Antimicrobial MIC, agar cup diffusion; format: cell-based; details: Escherichia coli, read-out: MIC (minimum inhibitory concentration)
S. typhi = assay: Antimicrobial MIC, agar cup diffusion; format: cell-based; details: Salmonella enterica, read-out: MIC (minimum inhibitory concentration)
K. pneumoniae = assay: Antimicrobial MIC, agar cup diffusion; format: cell-based; details: Klebsiella pneumoniae, read-out: MIC (minimum inhibitory concentration)
C. albicans = assay: Antimicrobial MIC, agar cup diffusion; format: cell-based; details: Candida albicans, read-out: MIC (minimum inhibitory concentration)
P. falciparum strain W2 = assay: In vitro antimalarial assay; format: cell-based; details: Plasmodium falciparum, W2; P. falciparum, 48 h, >99% of parasites inhibited from developing to schizonts
[1] = test system: Plasmodium berghei infection in mice; assay: In vivo antimalaria test; details: P. berghei infected mice; for inhibition in vivo at 100 mg/kg / inhibition in vivo at 200 mg/kg: Plasmodium berghei, oral
Description: Experimental Design and Treatment of Mice. Methods of Peter et al.[30] and Kalra et al.[31] for antiplasmodial assay against Plasmodium berghei infection in mice with some modifications were employed. About eighty infected mice were randomly divided into five groups, each having […] mice. The inoculum was prepared from a donor mouse with rising parasitemia of 60.42%. After 7 days of infection, animals begin to receive treatment (100 and 200 mg/kg b wt.) of the synthesized compounds (7a–7n) for 12 days with constant check of the percentage of parasitemia after a 4-day interval. Artemisinin (100 and 200 mg/kg body weight.) was given to the other mice in group three as positive control, group four was not treated and group five was not infected. All the compounds and the drugs were given orally by using a standard intragastric tube. For all parasitemia determination, blood samples were collected from tail snip of each mouse and thin smears prepared and stained with 10% Giemsa solution. The uniform fields of each stained slide (for each mouse) were examined under microscope with an oil immersion objective of 100X magnification power and average percent of parasitemia was determined.
To determine the in vivo activity, the compounds were tested against P. berghei NK(65 Strain) infection mice., the animals were obtained from Nigeria institute for Trypanosoma and onchocercarioses Research (NTIR) Vom, Plateau State Nigeria. The permission and approval for the use of animals in this experiment were granted by the Animal Ethics Committee, Federal College of Vetrenary Medical Laboratory, Vom, Plateau State. Method of Peter et al.[30], for antiplasmodial assay against P. berghei in mice with some modification were employed. Artemisimin was used as treated control of the experiments. The percentage inhibition of parasite multiplication was calculated comparing the treated group with untreated group by means of the following formula[39] [(A − B)/A] × 100; where A = parasitaemia in the untreated group and B = parasitemia in the test group. […] Most of the compounds were active against P. berghei after 7 days post-infection by reducing the parasiteamia by at least 40% when in a dose of 100 mg/kg (Table 5). The inhibition of parasitaemia increased on 12th day post infection for almost all the compounds. […] However in consideration of the compounds ability to inhibit parasitaemia to the control drug. […] These compounds should be considered for further studies because of its promising activities.

Liver function tests = format: in vivo; set-up: Glucose: unit not given here; details: mice, 10 mg/kg
Description: (§1) Twenty-four hours before the injecting the compounds, the blood sample of five mice was taken and it was also taken after the last day of treatment, the animals were sacrificed by cervical dislocation and the blood samples were collected by heart puncture. The blood samples for haematological parameters (red blood cell (RBC) count, white blood cell (WBC) count, packed cell volume (PCV), and hemoglobin (HGB)) were collected into EDTA bottles and analyzed using an automated machine (Automated CBC Analyzer: Sysmex KX-21). The liver function tests carried out with the blood of the rats fed with the sulfonamide derivatives were aspartate aminotransperase (AST), alanine transaminase (ALT) and alkaline phosphatase (ALP). Standard laboratory procedure according to Reitman and Franke[32] was used for the determination of parameters.

[2] = Renal or kidney function test; format: in vivo; details: mice, 10 mg/kg
Description: as §1, with “KX-21). Kidney” for “KX-21). The liver”, “derivatives were, creatinine” for “derivatives were aspartate aminotransperase (AST), alanine transaminase (ALT)”, “and albunim. The method reported by Kaplan” for “and alkaline phosphatase (ALP). Standard laboratory procedure according to Reitman”, “and Tengv[33]” for “and Franke[32]”, “used in” for “used for”, “of creatinine.” for “of parameters.”

Haematological analysis = format: in vivo, mice
Description: Twenty-four hours before the injecting the compounds, the blood sample of five mice was taken and it was also taken after the last day of treatment, the animals were sacrificed by cervical dislocation and the blood samples were collected by heart puncture. The blood samples for haematological parameters (red blood cell (RBC) count, white blood cell (WBC) count, packed cell volume (PCV), and hemoglobin (HGB)) were collected into EDTA bottles and analyzed using an automated machine (Automated CBC Analyzer: Sysmex KX-21).
The blood samples for haematological parameters (red blood cell (RBC) count, white blood cell (WBC) count, packed cell volume (PCV), and haemoglobin (HGB)) were collected into EDTA bottles and analyzed using an automated machine (Automated CBC Analyzer: Sysmex KX-21) (Table 8). From the analysis, even though there is a decrease in the value of RBC, PCV and HB, it is observed that there is no significant changes in the parameters that were analyzed for the control and the test compounds.

A. niger = assay: Antimicrobial MIC, agar cup diffusion; format: cell-based; details: Aspergillus niger, read-out: MIC (minimum inhibitory concentration)
[3] = 168 h, read-out: % inhibition 7 days post-treatment (100 mg/kg), day 7
[4] = 168 h, read-out: % inhibition 7 days post-treatment (200 mg/kg), day 7
[5] = 288 h, read-out: % inhibition 12 days post-treatment (100 mg/kg), day 12
[6] = 288 h, read-out: % inhibition 12 days post-treatment (200 mg/kg), day 12

Compound	MIC (B. subtilis)	MIC (E. coli)	MIC (S. typhi)	MIC (K. pneumoniae)	MIC (C. albicans)	MIC (P. falciparum strain W2)	inhibition in vivo at 100 mg/kg [1, 3]	inhibition in vivo at 200 mg/kg [1, 4]	inhibition in vivo at 100 mg/kg [1, 5]	inhibition in vivo at 200 mg/kg [1, 6]	ALT (Liver function tests; After)	AST (Liver function tests; After)	Bilirubin (Liver function tests; After)	T.P. (Liver function tests; After)	ALT (Liver function tests; Before)	AST (Liver function tests; Before)	Bilirubin (Liver function tests; Before)	T.P. (Liver function tests; Before)	Albumin ([2]; After)	Creatinine ([2]; After)	also measured
Cc1ccc(S(=O)(=O)NC(C)C(=O)NCC(=O)Nc2cccc(F)c2)cc1 (stereo not shown) [Compound 7j, N-(2-((3-fluorophenyl)amino)-2-oxoethyl)-2–(4-methylphenylsulfonamido)propanamide]	245 µg/mL (≈ 623 µM)	275 µg/mL (≈ 699 µM)	129 µg/mL (≈ 328 µM)	83 µg/mL (≈ 211 µM)	371 µg/mL (≈ 943 µM)	0.88 µM (≈ 0.346 µg/mL)	77.9%	77.4%	82.7%	73.5%	25.5 µ/L	60.0 µ/L	0.2 mg/dL	5.8 g/dL	26.3 µ/L	65.0 µ/L	0.4 mg/dL	6.0 g/dL	4.0 g/dL	0.3 mg/dL	ability to inhibit parasitaemia compared to the control drug ([1]; in words): almost the same or better activity compared to the artemisinin; Albumin ([2]; Before): 3.9 g/dL; Creatinine ([2]; Before): 0.4 mg/dL; HB (Haematological analysis; After treatment): 10.0 g/dL; PCV (Haematological analysis; After treatment): 34%; RBC (Haematological analysis; After treatment): 6.5 × 10^6 mm^3; WBC (Haematological analysis; After treatment): 9.1 × 10^3 mm^3; HB (Haematological analysis; Before treatment): 13.5 g/dL; PCV (Haematological analysis; Before treatment): 39%; RBC (Haematological analysis; Before treatment): 7.1 × 10^6 mm^3; WBC (Haematological analysis; Before treatment): 8.0 × 10^3 mm^3
CC(NS(=O)(=O)c1ccccc1)C(=O)NCC(=O)Nc1cccc(F)c1 (stereo not shown) [Compound 7c]	3470 µg/mL (≈ 9140 µM)	372 µg/mL (≈ 980 µM)	2690 µg/mL (≈ 7090 µM)	129 µg/mL (≈ 340 µM)	3470 µg/mL (≈ 9140 µM)	0.72 µM (≈ 0.273 µg/mL)	48.3%	40.2%	51.3%	48.7%	23.5 µ/L	61.5 µ/L	0.5 mg/dL	5.5 g/dL	20.5 µ/L	62.0 µ/L	0.3 mg/dL	5.8 g/dL	3.0 g/dL	0.3 mg/dL	Glucose (Liver function tests; After): 5.0; Glucose (Liver function tests; Before): 5.6; Albumin ([2]; Before): 3.5 g/dL; Creatinine ([2]; Before): 0.3 mg/dL; HB (Haematological analysis; After treatment): 9.8 g/dL; PCV (Haematological analysis; After treatment): 33%; RBC (Haematological analysis; After treatment): 6.0 × 10^6 mm^3; WBC (Haematological analysis; After treatment): 9.0 × 10^3 mm^3; HB (Haematological analysis; Before treatment): 14.5 g/dL; PCV (Haematological analysis; Before treatment): 38%; RBC (Haematological analysis; Before treatment): 7.5 × 10^6 mm^3; WBC (Haematological analysis; Before treatment): 10.3 × 10^3 mm^3; melting point: 125 to 127 °C
O=C(O)c1cn(C2CC2)c2cc(N3CCNCC3)c(F)cc2c1=O [CIP, Ciprofloxacin, reference compound]	184 µg/mL (≈ 555 µM)	131 µg/mL (≈ 395 µM)	128 µg/mL (≈ 386 µM)	113 µg/mL (≈ 341 µM)	–	–	–	–	–	–	–	–	–	–	–	–	–	–	–	–	–
OC(Cn1cncn1)(Cn1cncn1)c1ccc(F)cc1F [FLU, Fluconazole, reference compound]	–	–	–	–	21.7 µg/mL (≈ 70.9 µM)	–	–	–	–	–	–	–	–	–	–	–	–	–	–	–	MIC (A. niger): 47.1 µg/mL (≈ 154 µM)
CC(NS(=O)(=O)c1ccccc1)C(=O)NCC(=O)Nc1ccccc1 (stereo not shown) [Compound 7f, N-(2-oxo-2-(phenylamino)ethyl)-2-(phenylsulfonamido)propanamide]	155 µg/mL (≈ 429 µM)	131 µg/mL (≈ 362 µM)	4680 µg/mL (≈ 12900 µM)	5010 µg/mL (≈ 13900 µM)	214 µg/mL (≈ 592 µM)	2.32 µM (≈ 0.839 µg/mL)	38.2%	71%	41.9%	73.3%	–	–	–	–	–	–	–	–	–	–	activity against Bacillus compared with ciprofloxacin (B. subtilis; in words): greater activity against Bacillus than ciprofloxacin; MIC (A. niger): 105 µg/mL (≈ 290 µM)
